{
  "source": "patent US20100009934A1",
  "about": "“BETA ADRENERGIC RECEPTOR AGONISTS FOR THE TREATMENT OF B-CELL PROLIFERATIVE DISORDERS” (CombinatoRx, Incorporated, priority 2008, published 2010)",
  "key": {"[1]": {"tested_on": "MM.1S cells", "assay": "Annexin V / propidium iodide apoptosis assay, MM.1S", "type": "cell-based, human", "settings": "0.3 nM salmeterol, 72 hours (FIG. 2)", "method": "Effects on cell viability were determined by measuring the percent of cells that were annexin V positive (an early marker for apoptosis) and by measuring the percent of cells propidium iodide (PI) positive, an indicator that cellular membranes are compromised and a marker of cell death."}, "[2]": {"tested_on": "RPMI-8226 cells", "settings": "2 nM salmeterol for 5 hours, soft agar, three weeks; 740 colonies without drugs", "method": "The effect of BAR agonists on cells grown in soft agar was also determined. This approach allows the measurement of long term cell viability after single agent or combination treatment. […] Cells were washed and plated in soft agar. After three weeks colonies were counted to determine cell viability."}, "[3]": {"tested_on": "Human Multiple Myeloma Cells (MM.1S) cultured in the presence of BAR agonist for one month", "assay": "Antiproliferative activity on MM.1S cultured one month in the presence of salmeterol or salbutamol", "type": "cell-based", "settings": "for percent inhibition of cell proliferation: MM.1S cultured in Salmeterol for one month (final 64 nM), DEX (μM): 2.0, 0.666, 0.23, 0.074, 0.024, 0.0082, 0.00274, 0.0009, 0", "text": "A recurrent problem in cancer therapy is that prolonged exposure of tumor cells to chemotherapeutic agents can generate cells resistant to agents that initially have antiproliferative or cell killing activity. […] Cells cultured for one month in the presence of BAR agonist were washed to remove drug and put into 384 well plates for 9×9 dose matrix combination screening with BAR agonists and dexamethasone."}, "[4]": {"tested_on": "MM.1S cells", "assay": "Annexin V/PI FACS assay of control MM.1S and cells cultured one month with salmeterol or salbutamol", "type": "cell-based, human", "settings": "250 pM salmeterol", "description": "Forty eight hours later, the percent of cells positive for Annexin V and propidium iodide (PI) was determined using FACS (FIG. 5)."}, "[5]": {"tested_on": "human multiple myeloma xenografts (MM1S)", "assay": "MM.1S xenograft model in SCID mice", "type": "in vivo, mouse", "settings": "Dex 1 mg/kg or salmeterol 10 mg/kg, subcutaneous daily", "method": "The human multiple myeloma cell line MM1S was injected subcutaneously into the flanks of SCID mice. Five days following the injection of MM1S cells, animals were randomized into the following four treatment groups (n=6-7) based on tumor size.\n(§1) Group 1—Vehicle (90% PBS+10% EtOH)\nThe prepared test, positive, and negative control substances were administered via subcutaneous injection daily for up to 85 Days. During the treatment period, tumor volume and animal body weights were measured 3 times per week (Monday, Wednesday and Friday). The animals were removed from the study if there was overall poor body condition, tumor volume above 3000 mm^3, body weight loss greater than or equal to 20% or ulcerated tumors.\nThe slope of the tumor volume growth of each animal was calculated from the initial study day until the day each animal was removed from the study. From these slopes the mean change in tumor volume per study day was calculated."}, "[6]": {"tested_on": "RPMI-8226 multiple myeloma (MM) xenograft", "settings": "Day 19; 10 mg/kg salmeterol, 0.5 mg/kg bortezomib, or both", "method": "Dexamethasone was administered by intraperitoneal (IP) injection daily for thirty-six treatments (QD×36). Bortezomib was injected intravenously (IV) every third day for six treatments (Q3D×6).\nas §1\nSignificant endpoints included mean tumor growth inhibition (TGI) or regression, animal weight loss, and potential toxicity. […] Animals were implanted with cancer cells harvested from tissue culture and allowed to establish tumors in SCID mice. Treatment initiated when the mean tumor volume reached 137 mm^3 in size."}, "[7]": {"tested_on": "Human Multiple Myeloma Cells (MM.1S)", "settings": "10 ng/ml IL-6 vs no IL-6 (Tables 52 and 53)"}, "[8]": {"tested_on": "Human Multiple Myeloma Cells (MM.1S)", "assay": "cells", "settings": "MM1.S"}, "[9]": {"tested_on": "Human Multiple Myeloma Cells (EJM)", "assay": "Anti-proliferation assay (ATPLite, 72 hours), EJM", "settings": "DEX μM r7-r15: 2.03, 0.675, 0.225, 0.075, 0.025, 0.00834, 0.00278, 0.00093, 0"}, "[10]": {"tested_on": "Human Multiple Myeloma Cells (MM.1S)", "assay": "Anti-proliferation assay (ATPLite, 72 hours), MM.1S"}, "[11]": {"tested_on": "Human Multiple Myeloma Cells (ANBL-6)", "assay": "Anti-proliferation assay (ATPLite, 72 hours), ANBL-6", "settings": "for Antiproliferative Activity: Salmeterol 0.00000506 μM"}, "[12]": {"tested_on": "multiple myeloma tumor cells from patients", "assay": "MTT cell viability assay, multiple myeloma patient tumor cells", "settings": "Homo sapiens, 48 h", "excerpt": "Tumor cells were obtained via bone marrow aspirates and affinity selected using CD138-linked magnetic beads."}, "[13]": {"settings": "read-out: percent inhibition of cell proliferation, +10 ng/ml IL-6, Salmeterol […], DEX (μM) by row: r9 0.15, r10 0.076, r11 0.038, r12 0.019, r13 0.0096, r14 0"}, "[14]": {"settings": "read-out: percent inhibition of cell proliferation, salmeterol […], 10 ng/mL IL-6"}, "[15]": {"settings": "read-out: percent inhibition of cell proliferation, salmeterol […], no IL-6"}, "[16]": {"settings": "Homo sapiens, MM1.S, read-out: percent inhibition of cell proliferation"}, "[17]": {"settings": "read-out: Reduction in Cell Viability"}},
  "note": "“And” between values parts separate entries of the source, which are not always exact repeats. Equal entries are not always repeated. Where two headings read alike, the source gives them in different places.",
  "data": [
    {"smiles": "OCc1cc(C(O)CNCCCCCCOCCCCc2ccccc2)ccc1O", "note": "(stereo not drawn) [salmeterol]", "values": [
      {"measurement": "induction of MM.1S cell apoptosis", "setting": "[1]", "value": "~40", "unit": "%"},
      {"measurement": "colony number per 10,000 cells plated", "setting": "[2]", "value": 360, "unit": "colonies"},
      {"measurement": "percent inhibition of cell proliferation", "setting": "[3]; Salmeterol 0.00008 μM", "value": 6.1, "unit": "%"},
      {"measurement": "percent inhibition of cell proliferation", "setting": "[3]; Salmeterol 0.02 μM", "value": 5.6, "unit": "%"},
      {"measurement": "inhibition of proliferation", "setting": "[3]; […] salmeterol, cells cultured one month in salmeterol (64 nM), Table 48", "value": 4.1, "unit": "%"},
      {"measurement": "single agent sensitivity after culture in 64 nM salmeterol", "setting": "[3]; cells cultured one month in salmeterol (Table 48)", "value": "no longer sensitive"},
      {"measurement": "sensitivity (Annexin V/PI)", "setting": "[4]; cells treated for one month with salmeterol or salbutamol, 48 hours", "value": "not sensitive"},
      {"measurement": "Annexin V/PI+ cells", "setting": "[4]; control cells, 48 hours (FIG. 5)", "value": 20, "unit": "%"},
      {"measurement": "study day by which all animals of the group were removed", "setting": "[5]", "value": "≤ 43", "unit": "study day"},
      {"measurement": "tumor growth inhibition (TGI)", "setting": "[6]", "value": 37, "unit": "%"},
      {"measurement": "effect of IL-6 on antiproliferative activity", "setting": "[7]", "value": "increased at each concentration tested"},
      {"measurement": "inhibition at 32 pM", "setting": "[8]; [13]", "value": 22, "unit": "%"},
      {"measurement": "inhibition at […]", "setting": "[8]; [13]", "value": 52, "unit": "%"},
      {"measurement": "inhibition at 32 pM", "setting": "[8]; read-out: percent inhibition of cell proliferation, no IL-6, Salmeterol […], DEX (μM) by row: r9 0.15, r10 0.076, r11 0.038, r12 0.019, r13 0.0096, r14 0", "value": 21, "unit": "%"},
      {"measurement": "inhibition at 100 fM", "setting": "[8]; read-out: percent inhibition of cell proliferation, salmeterol 0.1 pM, 10 ng/mL IL-6", "value": 19, "unit": "%"},
      {"measurement": "inhibition at 100 fM", "setting": "[8]; read-out: percent inhibition of cell proliferation, salmeterol 0.1 pM, no IL-6", "value": 11, "unit": "%"},
      {"measurement": "inhibition at 200 fM", "setting": "[8]; read-out: percent inhibition of cell proliferation, salmeterol 0.2 pM, 10 ng/mL IL-6", "value": 30, "unit": "%"},
      {"measurement": "inhibition at 200 fM", "setting": "[8]; read-out: percent inhibition of cell proliferation, salmeterol 0.2 pM, no IL-6", "value": 25, "unit": "%"},
      {"measurement": "inhibition at 400 fM", "setting": "[8]; read-out: percent inhibition of cell proliferation, salmeterol 0.4 pM, 10 ng/mL IL-6", "value": 36, "unit": "%"},
      {"measurement": "inhibition at 400 fM", "setting": "[8]; read-out: percent inhibition of cell proliferation, salmeterol 0.4 pM, no IL-6", "value": 30, "unit": "%"},
      {"measurement": "inhibition at […]", "setting": "[8]; read-out: percent inhibition of cell proliferation, salmeterol 160 pM, 10 ng/mL IL-6", "value": 59, "unit": "%"},
      {"measurement": "inhibition at […]", "setting": "[8]; read-out: percent inhibition of cell proliferation, salmeterol 160 pM, no IL-6", "value": 50, "unit": "%"},
      {"measurement": "inhibition at […]", "setting": "[8]; read-out: percent inhibition of cell proliferation, salmeterol 320 pM, 10 ng/mL IL-6", "value": 66, "unit": "%"},
      {"measurement": "inhibition at […]", "setting": "[8]; read-out: percent inhibition of cell proliferation, salmeterol 320 pM, no IL-6", "value": 59, "unit": "%"},
      {"measurement": "inhibition at 25 fM", "setting": "[8]; [14]", "value": 2.8, "unit": "%"},
      {"measurement": "inhibition at 51 fM", "setting": "[8]; [14]", "value": 8.6, "unit": "%"},
      {"measurement": "inhibition at 810 fM", "setting": "[8]; [14]", "value": 54, "unit": "%"},
      {"measurement": "inhibition at 25 fM", "setting": "[8]; [15]", "value": 5, "unit": "%"},
      {"measurement": "inhibition at 51 fM", "setting": "[8]; [15]", "value": 6.7, "unit": "%"},
      {"measurement": "inhibition at 810 fM", "setting": "[8]; [15]", "value": 43, "unit": "%"},
      {"measurement": "Antiproliferative Activity", "setting": "[9]; Salmeterol 0.000158 μM", "value": 38.1},
      {"measurement": "Antiproliferative Activity", "setting": "[9]; Salmeterol 0.000316 μM", "value": 47.7},
      {"measurement": "Antiproliferative Activity", "setting": "[9]; Salmeterol 0.00506 μM", "value": 47.9},
      {"measurement": "inhibition at 9.1 pM", "setting": "[10]; [16]", "value": 4.9, "unit": "%"},
      {"measurement": "inhibition at 27 pM", "setting": "[10]; [16]", "value": 7.1, "unit": "%"},
      {"measurement": "inhibition at 80 pM", "setting": "[10]; [16]", "value": 25, "unit": "%"},
      {"measurement": "inhibition at 0.02 µM", "setting": "[10]; [16]", "value": 59, "unit": "%"},
      {"measurement": "percent inhibition of cell proliferation", "setting": "[10]; SAHA 0 μM (single agent), Salmeterol (nM) by row: r7 0.011, r8 0.0036, r9 0.0012, r10 0.0004, r11 0.00013, r12 0.000045", "value": 70, "unit": "%"},
      {"measurement": "Antiproliferative Activity", "setting": "[10]; Salmeterol 0.00000506 μM, BORT μM r7-r15: 0.0405, 0.0203, 0.0101, 0.00506, 0.00253, 0.00127, 0.000633, 0.000316, 0", "value": 16.9, "unit": "%"},
      {"measurement": "Antiproliferative Activity", "setting": "[11]; DEX μM r7-r15: 2.03, 0.675, 0.225, 0.075, 0.025, 0.00834, 0.00278, 0.00093, 0", "value": 18.6},
      {"measurement": "Antiproliferative Activity", "setting": "[11]; LEN μM r7-r15: 4.04, 2.02, 1.01, 0.505, 0.253, 0.126, 0.0632, 0.0316, 0", "value": 34.7},
      {"measurement": "percent inhibition of cell proliferation", "setting": "[11]; Trequinsin 0 μM (single agent), SAL (μM): 0.0203, 0.0101, 0.00506, 0.00253, 0.00127, 0.000633, 0.000316, 0.000158", "value": "54% and 55.7% and 58.4% and 54.8% and 50.7% and 58% and 54.7% and 55%"},
      {"measurement": "cytotoxicity at 12.5 pM", "setting": "[12]; [17]", "value": -0.2, "unit": "%"},
      {"measurement": "cytotoxicity at 25 pM", "setting": "[12]; [17]", "value": 12, "unit": "%"},
      {"measurement": "cytotoxicity at 50 pM", "setting": "[12]; [17]", "value": 13, "unit": "%"},
      {"measurement": "cytotoxicity at 0.0001 µM", "setting": "[12]; [17]", "value": 35, "unit": "%"},
      {"measurement": "cytotoxicity at 0.0002 µM", "setting": "[12]; [17]", "value": 40, "unit": "%"},
      {"measurement": "cytotoxicity at 0.0004 µM", "setting": "[12]; [17]", "value": 38, "unit": "%"},
      {"measurement": "cytotoxicity at 0.0008 µM", "setting": "[12]; [17]", "value": 44, "unit": "%"},
      {"measurement": "cytotoxicity at 0.0004 µM", "setting": "[12]; read-out: activity (reduction in cell viability)", "value": 38, "unit": "%"},
      {"measurement": "viability at 0.001 µM", "setting": "[12]; read-out: tumor cell viability", "value": 80, "unit": "%"}
    ]}
  ]
}
